Measured values as given in patent publication US11717553B2, “Combined plant extract for getting rid of mites and acne and preparation method and use thereof” (Nanjing Institute for Comprehensive Utilization of Wild …, priority 2020, dated 2023).
Like-named read-outs stand apart in the source and are kept apart here.

What was measured:
[1] = system: human follicle mites; assay: In vitro experiment of mite elimination by combined plant extracts and single plant extracts (Example 4); conditions: 4 h
Excerpt: (§1) Mites for experiments: follicle mites were obtained with a transparent tape sticking overnight. Specifically, subjects were required to clean their face thoroughly and stick a transparent tape which is 6 cm long and 1.5 cm wide to their foreheads, cheeks, noses, chins or other sites before going to bed. The tape was peeled off the next day, stuck on a glass slide and observed under a microscope.
Preparation of samples to be tested: a total of 7 samples of combined plant extracts and single plant extracts prepared according to Examples 1-3 and Comparative Examples 1-4, were sequentially denoted as samples no. 1-7 to be tested, and diluted with deionized water to a 25% concentration for later use.
1.2.1 Test groups: the test solutions were denoted as no. 1-7 sequentially, a 2% metronidazole solution was used as the positive control group, and liquid paraffin was used as the blank control group. 10 follicle mites were included in each group. […]
(§2) 1.2.2 Observation method: a micropipette was used to draw 200 μL of an agent solution and drop it on a slide. […] The tapes where follicle mites were detected were stuck on the slides to allow sufficient contact of the solution and the mites. […]
(§3) 1.2.3 Determination of death: the mites whose limbs or feet were immobile under a 400× microscope for 1 min were initially determined to be dead, and those who still immobile after 30 min were diagnosed as dead. […]

[2] = system: human follicle mites; conditions: 4 h
Excerpt: as §1
Preparation of samples to be tested: The combined plant extract prepared according to Example 1 was diluted with deionized water to obtain final concentrations of 100%, 50%, 25%, 12.5%, 6.25%, and 3.125% for later use.
1.2.1 Test groups: the combined plant extract to be tested was divided into 6 concentration gradient groups, a 2% metronidazole solution was used as the positive control group, and liquid paraffin was used as the blank control group. 10 follicle mites were included in each group. […]
as §2, §3

Cc1ncc([N+](=O)[O-])n1CCO [Metronidazole, metronidazole]
Corrected mortality rate (%) ± SE [1]: 56.73 ± 4.07%
Corrected mortality rate (%) ± SE [2]: 54.66 ± 4.38%
